Data set [1] in a line: Estimated free fraction in blood, calculated from Kd* with [HSA]total 700 μM. In kind it is in vitro ADME. As to conditions: human; [HSA]total set at 700 μM; read-out: Free Fraction est. in blood. As for the experimental part: The free fraction in blood is estimated per the following equation, as derived by Trainor, Expert Opin. Drug Disc., 2007, 2(1):51-64, where [HSA]total is set at 700 μM. [formula]

Data set [2] concerns the target human serum proteins. Nature of the data set: Apparent affinity to human serum proteins (Kd*) by EC50 shift analysis. The format is in vitro ADME. As to conditions: nonlinear regression of EC50 shift with serum, n = 1, P = 700 μM for 100% serum. The text has this: The measurement of apparent Kd values for serum protein by EC50 shift analysis provides a simple and rapid means of quantifying the propensity of experimental compounds to bind HSA and other serum proteins. A linear relationship exists between the apparent EC50 in the presence of serum protein (EC′50) and the amount of serum protein added to an in vitro assay. This relationship is defined by the binding affinity of the compound for serum proteins, expressed as Kd*. This term is an experimentally determined, apparent dissociation constant that may result from the cumulative effects of multiple, experimentally indistinguishable, binding events. The form of this relationship is presented here in Eq. 0.3, and its derivation can be found in Copeland et al, Biorg. Med. Chem. Lett. 2004, 14:2309-2312. [formula] A significant proportion of serum protein binding can be ascribed to drug interactions with HSA, due to the very high concentration of this protein in serum (35-50 g/L or 530-758 μM). To calculate the Kd value for these compounds we have assumed that the shift in EC50 upon protein addition can be ascribed fully to the HSA present in the added serum, where P is 700 μM for 100% serum, P is 70 μM for 10% serum, etc. We further made the simplifying assumption that all of the compounds bind HSA with a 1:1 stoichiometry, so that the term n in Eq. (0.3) is fixed at unity. With these parameters in place we calculated the Kd* value for each stapled peptide from the changes in EC50 values with increasing serum (and serum protein) concentrations by nonlinear regression analysis of Eq. 0.3 using Mathematica 4.1 (Wolfram Research, Inc., www.wolfram.com). EC′50 values in whole blood are estimated by setting P in Eq. 0.3 to 700 μM [HSA].

In data set [3] the test system is Jurkat cell line. The format is cell-based. The following applies: for EC50: 24 h; for efficacy in serum-free media and in the presence of serum: statement in words. The method, then:
Jurkat cell line (Clone E6-1, ATCC catalog #TIB-152) is grown in specific serum-supplemented media (RPMI-1640, Invitrogen catalog #22400) as recommended by ATCC. A day prior to the initiation of the study, cells are split at optimal cell density (2×10^5-5×10^5 cells/ml) to assure actively dividing cells. The next day, cells are washed twice in serum-free Opti-MEM media (Invitrogen, Catalog #51985) and cells are then plated at optimal cell density (10,000 cells/well) in 50 μl Opti-MEM media or Opti-MEM supplemented with 2% or 10% human serum (Bioreclamation, catalog #HMSRM) in 96-well white tissue culture plate (Nunc, catalog #136102).
For serum free experiment, crosslinked polypeptides are diluted from 2 mM stocks (100% DMSO) in sterile water to prepare 400 μM working solutions. The crosslinked polypeptides and controls are diluted 10-fold first and then serially two-fold diluted in Opti-MEM in dosing plates to provide concentrations of between 1.2 and 40 μM. 50 μl of each dilution is then added to the appropriate wells of the test plate to achieve final concentrations of the polypeptides equal to between 0.6 to 20 μM. For studies using Opti-MEM supplemented with human serum (Bioreclamation, catalog #HMSRM), crosslinked polypeptides are diluted from 10 mM stocks (100% DMSO) in sterile water to prepare 2 mM working solutions. The crosslinked polypeptides and controls are diluted 10-fold first and then serially two-fold diluted in Opti-MEM in the presence of 2% or 10% of human serum to provide concentrations of the polypeptides equal to between 6.25 to 200 μM in dosing plates. 50 μl of each dilution is then added to the appropriate wells of the test plate to achieve final concentrations of the polypeptides equal to between 3.125 to 100 μM. Controls included wells without polypeptides containing the same concentration of DMSO as the wells containing the macrocycles, wells containing 0.1% Triton X-100 and wells containing no cells. Plates are incubated for 24 hours at 37° C. in humidified 5% CO2 atmosphere.
At the end of the incubation period, CellTiter-Glo assay is performed according to manufacturer's instructions (Promega, catalog #G7573) and luminescence is measured using Synergy HT Plate reader (BioTek). Luminescence correlates with viability. A reduction in viability reflects the ability of the test compounds to induce programmed cell death via BAX and BAK.

In data set [4] the target is T1, human serum proteins (binding ascribed fully to human serum albumin, HSA) (human, UniProt P02768 25-609).
T1 construct: No purified HSA was used
T1 sequence (P02768 25-609 limits assumed): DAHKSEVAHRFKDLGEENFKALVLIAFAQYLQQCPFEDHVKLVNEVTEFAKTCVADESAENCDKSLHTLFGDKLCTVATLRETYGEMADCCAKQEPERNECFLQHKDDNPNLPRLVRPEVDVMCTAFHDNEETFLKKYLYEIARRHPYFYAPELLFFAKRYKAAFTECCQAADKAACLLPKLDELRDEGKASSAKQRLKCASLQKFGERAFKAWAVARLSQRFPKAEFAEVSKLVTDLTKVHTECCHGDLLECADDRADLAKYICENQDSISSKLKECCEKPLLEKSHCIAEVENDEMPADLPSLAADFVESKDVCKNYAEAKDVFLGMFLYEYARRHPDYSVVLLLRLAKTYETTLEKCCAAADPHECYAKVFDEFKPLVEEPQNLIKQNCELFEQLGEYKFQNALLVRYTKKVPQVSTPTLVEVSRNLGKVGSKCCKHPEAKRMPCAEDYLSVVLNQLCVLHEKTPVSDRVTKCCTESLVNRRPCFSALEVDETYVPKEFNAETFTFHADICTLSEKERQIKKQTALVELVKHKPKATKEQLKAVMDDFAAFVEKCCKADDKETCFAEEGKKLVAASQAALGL
The data set can be described thus: apparent Kd* by EC50 shift analysis: Jurkat viability EC50 at 0, 2 and 10% human serum, fit assuming 1:1 binding to HSA.

Data set [5] deals with T1, human serum proteins (binding ascribed …). Nature of the data set: cell-based or functional assay.

Numbered stars: 1 amine (or outer) side, 2 acyl side, 3 side chain; on linkers, the order of the positions; unused ones are H or OH. Bridge positions count the residues as written; N and C are the ends. Square brackets hold non-standard residues; d marks the D form. Peptide text beside a SMILES is read from it. * marks the point of attachment. ξ: configuration not given here. ξαMeNle(6-ylidene) = CC(CCCC=[*:3])(N[*:1])C(=O)[*:2]; S5 = C=CCCC[C@](C)(N)C(=O)O; Nle = CCCC[C@H](N)C(=O)O; Aib = CC(C)(N)C(=O)O; Propionyl = CCC(=O)*

For orientation: EC50 means the concentration that produces a half-maximal response.

Consider `CCCC[C@H](NC(=O)C1(C)CCCC=CCCCC(C)(NC(=O)[C@H](C)NC(=O)[C@H](CC(C)C)NC(=O)[C@H](Cc2c[nH]cn2)NC(=O)[C@H](CCCNC(=N)N)NC(=O)[C@H](C)NC(=O)[C@@H](NC(=O)[C@H](CC(N)=O)NC(=O)[C@H](CCCNC(=N)N)NC(=O)[C@@H](NC(=O)[C@@H](NC(=O)[C@H](CC(=O)O)NC(C)=O)[C@@H](C)CC)[C@@H](C)CC)[C@@H](C)CC)C(=O)N[C@@H](C(C)C)C(=O)NCC(=O)N[C@@H](CC(=O)O)C(=O)N1)C(=O)N[C@@H](CC(=O)O)C(=O)N[C@@H](CCCNC(=N)N)C(=O)N[C@@H](CO)C(=O)N[C@H](C(N)=O)[C@@H](C)CC` (some centres unmarked) [Compound 1, Ac-DIIRNIARHLA$VGD$NleDRSI-NH2] (Ac-DIIRNIARHLA[ξαMeNle(6-ylidene)]VGD[ξαMeNle(6-ylidene)][Nle]DRSI-NH2; staple 12-16), for which the fraction unbound in data set [1] is less than 0.001. Further, in data set [2], the Kd was less than 100 nM. Besides, in data set [3], the EC50 worked out at 1200 nM; the “efficacy in serum-free media and in the presence of serum” value was “high efficacy in serum-free media, which is substantially reduced in the presence of serum”.

`CCCC[C@H](NC(=O)C1(C)CCCC=CCCCC(C)(NC(=O)[C@H](C)NC(=O)[C@H](CC(C)C)NC(=O)[C@H](Cc2c[nH]cn2)NC(=O)[C@H](CCCNC(=N)N)NC(=O)[C@H](C)NC(=O)[C@@H](NC(=O)[C@H](CC(N)=O)NC(=O)[C@H](CCCNC(=N)N)NC(=O)[C@H](C)NC(=O)[C@H](C)NC(=O)[C@H](CC(=O)O)NC(C)=O)[C@@H](C)CC)C(=O)N[C@@H](C(C)C)C(=O)NC(C)(C)C(=O)N[C@@H](CC(=O)O)C(=O)N1)C(=O)N[C@@H](C)C(=O)N[C@@H](CCCNC(=N)N)C(=O)N[C@@H](CO)C(=O)N[C@H](C(N)=O)[C@@H](C)CC` (some centres unmarked) [Compound 2, Ac-DAARNIARHLA$VAibD$NleARSI-NH2] (Ac-DAARNIARHLA[ξαMeNle(6-ylidene)]V[Aib]D[ξαMeNle(6-ylidene)][Nle]ARSI-NH2; staple 12-16): in data set [1], the fraction unbound was less than 0.001. Further, the Kd in data set [2] is less than 100 nM. The EC50 in data set [3] came out at 1600 nM.

With `CCCC[C@H](NC(=O)C1(C)CCCC=CCCCC(C)(NC(=O)[C@H](C)NC(=O)[C@H](CC(C)C)NC(=O)[C@H](Cc2c[nH]cn2)NC(=O)[C@H](CCCNC(=N)N)NC(=O)[C@H](C)NC(=O)[C@@H](NC(=O)[C@H](CC(N)=O)NC(=O)[C@H](CCCNC(=N)N)NC(=O)[C@H](C)NC(=O)[C@@H](NC(=O)[C@H](CC(=O)O)NC(C)=O)[C@@H](C)CC)[C@@H](C)CC)C(=O)N[C@@H](C(C)C)C(=O)NC(C)(C)C(=O)N[C@@H](CC(=O)O)C(=O)N1)C(=O)N[C@@H](C)C(=O)N[C@@H](CCCNC(=N)N)C(=O)N[C@@H](CO)C(=O)N[C@H](C(N)=O)[C@@H](C)CC` (some centres unmarked) [Compound 3, Ac-DIARNIARHLA$VAibD$NleARSI-NH2] (Ac-DIARNIARHLA[ξαMeNle(6-ylidene)]V[Aib]D[ξαMeNle(6-ylidene)][Nle]ARSI-NH2; staple 12-16), the fraction unbound in data set [1] is less than 0.001. Moreover, the Kd in data set [2] is less than 100 nM. For the same molecule, in data set [3], the EC50 is 1200 nM.

As for `CCCC[C@H](NC(=O)C1(C)CCCC=CCCCC(C)(NC(=O)[C@H](C)NC(=O)[C@H](CC(C)C)NC(=O)[C@H](Cc2c[nH]cn2)NC(=O)[C@H](CCCNC(=N)N)NC(=O)[C@H](C)NC(=O)[C@@H](NC(=O)[C@H](CC(N)=O)NC(=O)[C@H](CCCNC(=N)N)NC(=O)[C@@H](NC(=O)[C@H](C)NC(=O)[C@H](CC(=O)O)NC(C)=O)[C@@H](C)CC)[C@@H](C)CC)C(=O)N[C@@H](C(C)C)C(=O)NC(C)(C)C(=O)N[C@@H](CC(=O)O)C(=O)N1)C(=O)N[C@@H](C)C(=O)N[C@@H](CCCNC(=N)N)C(=O)N[C@@H](CO)C(=O)N[C@H](C(N)=O)[C@@H](C)CC` (some centres unmarked) [Compound 4, Ac-DAIRNIARHLA$VAibD$NleARSI-NH2] (Ac-DAIRNIARHLA[ξαMeNle(6-ylidene)]V[Aib]D[ξαMeNle(6-ylidene)][Nle]ARSI-NH2; staple 12-16), the fraction unbound in data set [1] is less than 0.001. Moreover, the Kd in data set [2] is less than 100 nM. In data set [3], the EC50 worked out at 1000 nM.

As to `CCC(=O)N[C@@H](CCCNC(=N)N)C(=O)N[C@@H](CC(N)=O)C(=O)N[C@H](C(=O)NC(C)(C)C(=O)N[C@@H](CCCNC(=N)N)C(=O)N[C@@H](Cc1c[nH]cn1)C(=O)N[C@@H](CC(C)C)C(=O)NC(C)(C)C(=O)NC1(C)CCCC=CCCCC(C)(C(=O)N[C@@H](C)C(=O)N[C@@H](C)C(=O)N[C@@H](CCCNC(=N)N)C(=O)N[C@@H](CO)C(=O)N[C@H](C(N)=O)[C@@H](C)CC)NC(=O)[C@H](CC(=O)O)NC(=O)C(C)(C)NC(=O)[C@H](C(C)C)NC1=O)[C@@H](C)CC` (some centres unmarked) [Compound 9, Pr-RNIAibRHLAib$VAibD$AARSI-NH2] (Propionyl-RNI[Aib]RHL[Aib][ξαMeNle(6-ylidene)]V[Aib]D[ξαMeNle(6-ylidene)]AARSI-NH2; staple 9-13), the fraction unbound in data set [1] is 0.0048. In data set [2], the Kd was 2900 nM. Moreover, the EC50 in data set [3] was determined as 1100 nM.

Regarding `CC[C@H](C)[C@H](NC(C)=O)C(=O)N[C@@H](Cc1c[nH]c2ccccc12)C(=O)N[C@H](C(=O)N[C@@H](C)C(=O)N[C@@H](CCC(N)=O)C(=O)N[C@@H](CCC(=O)O)C(=O)N[C@@H](CC(C)C)C(=O)N[C@@H](CCCNC(=N)N)C(=O)NC1(C)CCCC=CCCCC(C)(C(=O)N[C@@H](Cc2ccccc2)C(=O)N[C@@H](CC(N)=O)C(=O)N[C@@H](C)C(=O)N[C@@H](Cc2ccc(O)cc2)C(=O)N[C@@H](Cc2ccc(O)cc2)C(=O)N[C@@H](C)C(=O)N[C@@H](CCCNC(=N)N)C(=O)N[C@@H](CCCNC(=N)N)C(N)=O)NC(=O)[C@H](CC(=O)O)NC(=O)CNC(=O)[C@H]([C@@H](C)CC)NC1=O)[C@@H](C)CC` (some centres unmarked) [Compound 10, Ac-IWIAQELR$IGD$FNAYYARR-NH2], the fraction unbound in data set [1] was less than 0.001. The Kd in data set [2] is less than 100 nM. For the same molecule, in data set [3], the EC50 was found to be 1300 nM; the “efficacy in serum-free media and in the presence of serum” value is listed as “high efficacy in serum-free media, which is substantially reduced in the presence of serum”.

Take `CC[C@H](C)[C@H](NC(C)=O)C(=O)N[C@@H](Cc1c[nH]c2ccccc12)C(=O)N[C@H](C(=O)N[C@@H](C)C(=O)N[C@@H](CCC(N)=O)C(=O)N[C@@H](CCC(N)=O)C(=O)N[C@@H](CC(C)C)C(=O)N[C@@H](CCCNC(=N)N)C(=O)NC1(C)CCCC=CCCCC(C)(C(=O)N[C@@H](Cc2ccccc2)C(=O)N[C@@H](CC(N)=O)C(=O)N[C@@H](C)C(=O)N[C@@H](Cc2ccc(O)cc2)C(=O)N[C@@H](Cc2ccc(O)cc2)C(=O)N[C@@H](C)C(=O)N[C@@H](CCCNC(=N)N)C(=O)N[C@@H](CCCNC(=N)N)C(N)=O)NC(=O)[C@H](CC(=O)O)NC(=O)CNC(=O)[C@H]([C@@H](C)CC)NC1=O)[C@@H](C)CC` (some centres unmarked) [Compound 11, Ac-IWIAQQLR$IGD$FNAYYARR-NH2]: the fraction unbound in data set [1] was 0.0018. Also, the Kd in data set [2] was 1100 nM. In addition, the EC50 in data set [3] was determined as 1200 nM.

B1: Compound 19 (crosslinked polypeptide derived from human MAML peptide sequence) (peptide)
peptide: Ac-ALRRRI[S5]LCA[S5]HHST-NH2
modifications: staple 7-11
notes: also called hMAML
As for B1, the Kd in data set [4] was determined as 600 nM. In data set [5], the “2% serum EC50 (Jurkat cell viability, CellTiter-Glo)” value was 14700 nM and the “10% serum EC50 (Jurkat cell viability, CellTiter-Glo)” value was 57500 nM.

The values above are taken from US9175045B2, “Peptidomimetic macrocycles” (Aileron Therapeutics, Inc., priority 2008, dated 2015).
